Data on five molecules can be found in article PMC6274772, “Guided Evolution of Recombinant Bombyx mori Acetylcholinesterase II by Homology Modeling to Change Pesticide Sensitivity” (International Journal of Molecular Sciences, 2018).

Experiment [1] deals with T1, rBmAChE II (recombinant Bombyx mori type II acetylcholinesterase) (Bombyx mori, UniProt B0FGT2).
T1 construct: gene ace2; predicted N-terminal signal peptide removed, codon-optimized, pPIC9K in Pichia pastoris GS115, secreted; crude culture supernatant; 604 residues
T1 sequence (B0FGT2 entry or part of it): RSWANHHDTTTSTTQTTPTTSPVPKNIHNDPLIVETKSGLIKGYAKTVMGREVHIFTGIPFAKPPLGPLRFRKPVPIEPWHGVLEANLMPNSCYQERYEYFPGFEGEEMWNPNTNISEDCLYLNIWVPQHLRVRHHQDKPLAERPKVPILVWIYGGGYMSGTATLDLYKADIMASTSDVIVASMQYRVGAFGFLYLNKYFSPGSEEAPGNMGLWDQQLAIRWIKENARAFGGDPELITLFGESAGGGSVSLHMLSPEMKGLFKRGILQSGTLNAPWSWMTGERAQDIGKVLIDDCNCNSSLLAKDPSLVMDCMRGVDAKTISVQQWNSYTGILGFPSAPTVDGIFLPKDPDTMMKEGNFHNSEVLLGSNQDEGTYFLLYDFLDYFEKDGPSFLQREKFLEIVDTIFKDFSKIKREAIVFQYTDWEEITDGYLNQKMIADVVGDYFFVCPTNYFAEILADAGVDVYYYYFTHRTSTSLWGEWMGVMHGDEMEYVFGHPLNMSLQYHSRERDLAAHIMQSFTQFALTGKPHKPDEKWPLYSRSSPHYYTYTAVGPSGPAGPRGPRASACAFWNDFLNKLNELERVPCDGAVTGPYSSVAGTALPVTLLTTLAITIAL
As to the kind of experiment: Ellman assay inhibition. In kind it is biochemical. As to conditions: crude enzyme supernatant; substrate acetylthiocholine iodide (ATChI), DTNB, 50 mM phosphate, 37 °C; covalent. From the text:
Ellman assay inhibition on rBmAChE II (recombinant Bombyx mori type II acetylcholinesterase) | inhibition of rBmAChE II mutants by various pesticides (malathion, methomyl, carbaryl, and carbofuran-3-hydroxy)
A general note: DTNB colorimetry detects thiols as they appear.

Experiment [2] has as its target T2, rBmAChE II (recombinant Bombyx mori type II acetylcholinesterase) (Bombyx mori, UniProt B0FGT2, Y398F).
T2 construct: gene ace2
As to conditions: crude enzyme supernatant; substrate acetylthiocholine iodide (ATChI), DTNB, 50 mM phosphate, 37 °C; covalent.

Experiment [3] addresses T3, rBmAChE II (recombinant Bombyx mori type II acetylcholinesterase) (Bombyx mori, UniProt B0FGT2, Y398W).
T3 construct: gene ace2
As to conditions: crude enzyme supernatant, substrate acetylthiocholine iodide (ATChI), DTNB, 50 mM phosphate, 37 °C, covalent.

Experiment [4] concerns the target T4, rBmAChE II (recombinant Bombyx mori type II acetylcholinesterase) (Bombyx mori, UniProt B0FGT2, Y398G).
T4 construct: gene ace2
As to conditions: crude enzyme supernatant; substrate acetylthiocholine iodide (ATChI), DTNB, 50 mM phosphate, 37 °C; covalent.

Experiment [5] addresses T1, rBmAChE II (recombinant Bombyx mori type II acetylcholinesterase). In kind it is biochemical. As to conditions: 30 µL (printed 30 mL) of 0.1 mg/mL physostigmine, 10 min preincubation at 37 °C; crude enzyme supernatant; ATChI substrate, DTNB, 50 mM phosphate.

Like-named read-outs stand apart in the source and are kept apart here.

T3 sequence (B0FGT2 entry or part of it Y398W): as the sequence (B0FGT2 entry or part of it) above, with Y375W counted along it
T2 sequence (B0FGT2 entry or part of it Y398F): as the sequence (B0FGT2 entry or part of it) above, with Y375F counted along it
T4 sequence (B0FGT2 entry or part of it Y398G): as the sequence (B0FGT2 entry or part of it) above, with Y375G counted along it

As a reminder, the IC50 is the concentration that inhibits the measured activity by half. Consider `CNC(=O)Oc1cccc2ccccc12` [carbaryl], for which the IC50 in experiment [1] turned out to be 33 nM; in experiment [2], 21 nM; in experiment [3], 16 nM; in experiment [4], 56 nM.

Take `CNC(=O)Oc1cccc2c1OC(C)(C)C2O` (stereo not drawn) [carbofuran-3-hydroxy]: the 50% inhibitory concentration (IC50) in experiment [1] is 76 nM; in experiment [2], 43 nM; in experiment [3], 246 nM; in experiment [4], 193 nM.

Take `CCOC(=O)CC(SP(=S)(OC)OC)C(=O)OCC` (stereo not drawn) [malathion]: the concentration for half-maximal inhibition (IC50) in experiment [1] turned out to be 2820 nM; in experiment [2], 1130 nM; in experiment [3] (stated gain), 5430 nM.

For `CNC(=O)ON=C(C)SC` [methomyl], the half-inhibitory concentration (IC50) was determined as 750 nM in experiment [1], 470 nM in experiment [2] and 4380 nM in experiment [3].

In the case of `CNC(=O)Oc1ccc2c(c1)[C@]1(C)CCN(C)[C@@H]1N2C` [physostigmine], the “Ellman assay, remaining activity” value in experiment [5] is “All four enzyme variants could be inhibited by physostigmine”.
